Data from paper PMC8149334 (Cancer Chemotherapy and Pharmacology, 2021).

What was measured:
P-glycoprotein (P-gp) = details: cited from earlier work
[1] = in vivo
Description: Additional details of the bioanalytical methods are available in the Supplementary Appendix. Serial blood samples were collected in Parts 1 and 2 on day 1 of cycles 1, 2, and 3, and every 3 cycles thereafter (Supplementary Table 1). […] Concentration–time profiles were plotted for each analyte, and individual and mean plasma concentration–time data and pharmacokinetic parameters were summarized using descriptive statistics.
Pharmacokinetic analyses were performed using the validated Phoenix™ WinNonlin® software (v6.2.1; […]). Noncompartmental analysis (model, Plasma; dose, extravascular) was applied for the pharmacokinetic analysis. The pharmacokinetics outputs were created using SAS v9.3 (SAS Institute Inc., Cary, NC, USA). Summary statistics, including N, mean, SD, % coefficient of variation, geometric mean, median, minimum, and maximum, were calculated for plasma concentration of each analyte at each time point and for the derived pharmacokinetic parameters.

## CNC(=O)c1ccc(N2C(=S)N(c3cnc(C#N)c(C(F)(F)F)c3)C(=O)C23CCC3)cc1F [Apalutamide, apalutamide]
P-glycoprotein (P-gp); patients with CRPC
  Reduction in AUC0–last of fexofenadine: 30%

## O=C(O)c1cccc2cn(-c3ccc(C4CCCNC4)cc3)nc12 (stereo not drawn) [M1]
[1]
  Metabolite-to-parent ratios: below 1

## CO[C@H]1/C=C/O[C@@]2(C)Oc3c(C)c(O)c4c(O)c(c(/C=N/N5CCN(C)CC5)c(O)c4c3C2=O)NC(=O)/C(C)=C\C=C\[C@H](C)[C@H](O)[C@@H](C)[C@@H](O)[C@@H](C)[C@H](OC(C)=O)[C@@H]1C [Rifampin]
P-glycoprotein (P-gp); human, not told
  Decrease in exposure of various P-gp substrates: ≤ 67%
